Experimental data as given in patent US12077503B2, “Substituted cyclic amides and their use as herbicides” (FMC CORPORATION, priority 2015, dated 2024).

How the values were obtained:
Assay in all cases: Test C preemergence
Type in all cases: in vivo
[1] = test system: ragweed (common ragweed, Ambrosia elatior); details: for Plant response rating, Ragweed: scale 0 to 100, 0 no effect, 100 complete control
How it was run: (§1)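 After treatment with surfactant-containing formulations, either preemergence to seeds in loam-sand soil or postemergence to potted seedlings at 2–18 cm, plants were kept 13–15 d in a greenhouse. Observers then compared them with controls and assigned ratings, 0 signifying no effect and 100 complete control.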

[2] = test system: barnyardgrass (Echinochloa crus-galli); details: for Plant response rating, Barnyardgrass: scale 0 to 100, 0 no effect, 100 complete control
How it was run: as §1

[3] = test system: pigweed (Amaranthus retroflexus); details: for Plant response rating, Pigweed: scale 0 to 100, 0 no effect, 100 complete control
How it was run: as §1

[4] = test system: ryegrass, Italian (Italian ryegrass, Lolium multiflorum); details: for Plant response rating, Ryegrass, Italian: scale 0 to 100, 0 no effect, 100 complete control
How it was run: as §1

[5] = test system: velvetleaf (Abutilon theophrasti); details: for Plant response rating, Velvetleaf: scale 0 to 100, 0 no effect, 100 complete control
How it was run: as §1

[6] = test system: morningglory (Ipomoea coccinea); details: for Plant response rating, Morningglory: scale 0 to 100, 0 no effect, 100 complete control
How it was run: as §1

[7] = test system: johnsongrass (Sorghum halepense); details: for Plant response rating, Johnsongrass: scale 0 to 100, 0 no effect, 100 complete control
How it was run: as §1

[8] = test system: foxtail, giant (giant foxtail, Setaria faberii); details: for Plant response rating, Foxtail, Giant: scale 0 to 100, 0 no effect, 100 complete control
How it was run: as §1

[9] = test system: blackgrass (Alopecurus myosuroides); details: for Plant response rating, Blackgrass: scale 0 to 100, 0 no effect, 100 complete control
How it was run: as §1

[10] = test system: Galium (catchweed bedstraw, Galium aparine); details: for Plant response rating, Galium: scale 0 to 100, 0 no effect, 100 complete control
How it was run: as §1

[11] = test system: crabgrass, large (large crabgrass, Digitaria sanguinalis); details: for Plant response rating, Crabgrass, Large: scale 0 to 100, 0 no effect, 100 complete control
How it was run: as §1

[12] = test system: wheat (winter wheat, Triticum aestivum); details: for Plant response rating, Wheat: scale 0 to 100, 0 no effect, 100 complete control
How it was run: as §1

[13] = test system: nutsedge, yellow (yellow nutsedge, Cyperus esculentus); details: for Plant response rating, Nutsedge, Yellow: scale 0 to 100, 0 no effect, 100 complete control
How it was run: as §1

[14] = test system: lambsquarters (Chenopodium album); details: for Plant response rating, Lambsquarters: scale 0 to 100, 0 no effect, 100 complete control
How it was run: as §1

[15] = test system: waterhemp (common waterhemp, Amaranthus rudis); details: for Plant response rating, Waterhemp: scale 0 to 100, 0 no effect, 100 complete control
How it was run: as §1

[16] = test system: oilseed rape (Brassica napus); details: for Plant response rating, Oilseed Rape: scale 0 to 100, 0 no effect, 100 complete control
How it was run: as §1

corn (Zea mays) = details: for Plant response rating, Corn: scale 0 to 100, 0 no effect, 100 complete control
How it was run: as §1

[17] = 31 g ai/ha, 0 is no effect, 100 is complete control

Cc1ccc(C2CN(C)C(=O)C2C(=O)Nc2cccc(F)c2F)cc1 (centres unmarked) [Compound 662]
30: Plant response rating, Morningglory ([6]; 125 g ai/ha)
35: Plant response rating (scale of 0 to 100), Velvetleaf [5, 17] | Plant response rating (scale of 0 to 100), Wheat [12, 17]
98: Plant response rating, Barnyardgrass ([2]; 62 g ai/ha) | Plant response rating, Barnyardgrass ([2]; 125 g ai/ha) | Plant response rating, Foxtail, Giant ([8]; 250 g ai/ha) | Plant response rating, Blackgrass ([9]; 250 g ai/ha) | Plant response rating (scale of 0 to 100), Crabgrass, Large [11, 17] | Plant response rating, Crabgrass, Large ([11]; 62 g ai/ha)
75: Plant response rating, Ragweed ([1]; 62 g ai/ha) | Plant response rating, Pigweed ([3]; 125 g ai/ha) | Plant response rating, Velvetleaf ([5]; 250 g ai/ha) | Plant response rating, Blackgrass ([9]; 62 g ai/ha)
95: Plant response rating (scale of 0 to 100), Barnyardgrass [2, 17] | Plant response rating, Ryegrass, Italian ([4]; 250 g ai/ha) | Plant response rating (scale of 0 to 100), Foxtail, Giant [8, 17] | Plant response rating, Foxtail, Giant ([8]; 62 g ai/ha) | Plant response rating, Foxtail, Giant ([8]; 125 g ai/ha) | Plant response rating, Blackgrass ([9]; 125 g ai/ha)
85: Plant response rating, Ragweed ([1]; 250 g ai/ha) | Plant response rating, Lambsquarters ([14]; 62 g ai/ha) | Plant response rating, Waterhemp ([15]; 125 g ai/ha) | Plant response rating, Oilseed Rape ([16]; 62 g ai/ha) | Plant response rating, Corn (corn (Zea mays); 250 g ai/ha)
90: Plant response rating, Johnsongrass ([7]; 125 g ai/ha) | Plant response rating, Johnsongrass ([7]; 250 g ai/ha) | Plant response rating (scale of 0 to 100), Galium [10, 17] | Plant response rating, Galium ([10]; 250 g ai/ha) | Plant response rating, Wheat ([12]; 125 g ai/ha) | Plant response rating, Wheat ([12]; 250 g ai/ha) | Plant response rating, Waterhemp ([15]; 250 g ai/ha) | Plant response rating, Oilseed Rape ([16]; 125 g ai/ha) | Plant response rating, Oilseed Rape ([16]; 250 g ai/ha)
70: Plant response rating (scale of 0 to 100), Ragweed [1, 17] | Plant response rating (scale of 0 to 100), Pigweed [3, 17] | Plant response rating, Ryegrass, Italian ([4]; 62 g ai/ha) | Plant response rating, Velvetleaf ([5]; 125 g ai/ha) | Plant response rating, Johnsongrass ([7]; 62 g ai/ha) | Plant response rating (scale of 0 to 100), Blackgrass [9, 17] | Plant response rating, Wheat ([12]; 62 g ai/ha) | Plant response rating (scale of 0 to 100), Oilseed Rape [16, 17] | Plant response rating, Corn (corn (Zea mays); 62 g ai/ha)
25: Plant response rating, Morningglory ([6]; 250 g ai/ha)
100: Plant response rating, Barnyardgrass ([2]; 250 g ai/ha) | Plant response rating, Galium ([10]; 62 g ai/ha) | Plant response rating, Galium ([10]; 125 g ai/ha) | Plant response rating, Crabgrass, Large ([11]; 125 g ai/ha) | Plant response rating, Crabgrass, Large ([11]; 250 g ai/ha) | Plant response rating (scale of 0 to 100), Lambsquarters [14, 17] | Plant response rating, Lambsquarters ([14]; 125 g ai/ha) | Plant response rating, Lambsquarters ([14]; 250 g ai/ha)
60: Plant response rating, Pigweed ([3]; 62 g ai/ha) | Plant response rating (scale of 0 to 100), Johnsongrass [7, 17] | Plant response rating (scale of 0 to 100), Waterhemp [15, 17]
0: Plant response rating (scale of 0 to 100), Morningglory [6, 17] | Plant response rating, Morningglory ([6]; 62 g ai/ha) | Plant response rating (scale of 0 to 100), Nutsedge, Yellow [13, 17] | Plant response rating, Nutsedge, Yellow ([13]; 62 g ai/ha) | Plant response rating, Nutsedge, Yellow ([13]; 125 g ai/ha) | Plant response rating, Nutsedge, Yellow ([13]; 250 g ai/ha)
80: Plant response rating, Ragweed ([1]; 125 g ai/ha) | Plant response rating, Pigweed ([3]; 250 g ai/ha) | Plant response rating, Ryegrass, Italian ([4]; 125 g ai/ha) | Plant response rating, Waterhemp ([15]; 62 g ai/ha) | Plant response rating, Corn (corn (Zea mays); 125 g ai/ha)
50: Plant response rating (scale of 0 to 100), Ryegrass, Italian [4, 17] | Plant response rating, Velvetleaf ([5]; 62 g ai/ha)
55: Plant response rating (scale of 0 to 100), Corn (corn (Zea mays); [17])
